The values that follow come from patent US5229410A, “6-substituted-hexahydrobenz[cd]indoles” (Eli Lilly and Company, priority 1991, dated 1993).

Read-outs that look alike come from different tables or passages of the source.

One test addresses T1, central 5-HT1A receptors (Rattus norvegicus, UniProt P19327).
T1 construct: the brains were rapidly chilled and dissected to obtain the hippocampi; from tissue; host or cells: hippocampus of male Sprague-Dawley rats (washed membranes)
T1 sequence (P19327 1-422): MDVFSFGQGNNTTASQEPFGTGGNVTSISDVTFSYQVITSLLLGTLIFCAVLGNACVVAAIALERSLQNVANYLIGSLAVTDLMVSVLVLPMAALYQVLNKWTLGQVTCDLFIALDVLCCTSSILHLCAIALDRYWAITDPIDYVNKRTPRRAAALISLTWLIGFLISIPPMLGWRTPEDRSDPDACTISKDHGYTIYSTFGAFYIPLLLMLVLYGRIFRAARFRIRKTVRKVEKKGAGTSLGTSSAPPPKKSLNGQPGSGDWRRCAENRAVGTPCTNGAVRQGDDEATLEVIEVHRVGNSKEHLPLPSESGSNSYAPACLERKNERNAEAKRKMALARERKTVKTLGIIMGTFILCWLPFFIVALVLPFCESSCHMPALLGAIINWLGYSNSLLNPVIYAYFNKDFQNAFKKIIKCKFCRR
In words: 5-HT1A receptor binding ([3H]8-OH-DPAT displacement, rat hippocampal membranes). Further details: species or system male Sprague-Dawley rats. On the procedure:
The affinities of the compounds at the central 5-HT1A receptors were determined using a modification of the binding assay described by Taylor, et al., (J. Pharmacol. Exp. Ther. 236:118-125, 1986). Membranes for the binding assay were prepared from male Sprague-Dawley rats (150-250 g). The animals were killed by decapitation, and the brains were rapidly chilled and dissected to obtain the hippocampi. The hippocampi were either prepared that day or stored frozen (-70° C.) until the day of preparation. Membranes were prepared by homogenizing the tissue in 40 volumes of ice-cold Tris-HCl buffer (50 mM, pH 7.4 at 22° C.) using a Techmar Tissumizer (setting 65 for 15 sec), and the homogenate was centrifuged at 39800×g for 10 min. The resulting pellet was then resuspended in the same buffer, and the centrifugation and resuspension process was repeated three additional times to wash the membranes. Between the second and third washes the resuspended membranes were incubated for 10 min at 37° C. to facilitate the removal of endogenous ligands. The final pellet was resuspended in 67 mM Tris-HCl, pH 7.4, to a concentration of 2 mg of tissue original wet weight/200 μl. This homogenate was stored frozen (-70° C.) until the day of the binding assay. […] The assay tubes were incubated for 10 min at 37° C., and the contents were then rapidly filtered through GF/B filters (pretreated with 0.5% polyethylenimine), followed by four one-mL washes with ice cold buffer. The radioactivity trapped by the filters was quantitated by liquid scintillation spectrometry, and specific [^3 H]8-OH-DPAT binding to the 5-HT1A sites was defined as the difference between [^3 H]8-OH-DPAT bound in the presence and absence of 10 μM 5-HT.
The affinity of the particular compound at the 5-HT1A receptor is expressed as IC50 value, i.e., the concentration required to inhibit 50% of the binding. The IC50 values were determined from 12-point competition curves using nonlinear regression (SYSTAT, SYSTAT, INC., Evanston, Ill.).

The target of test [1] is T2, central 5-HT1D binding sites (Bos taurus, UniProt F1MGM3).
T2 construct: Bovine brains were obtained from Pel-Freeze Biologicals, and the caudate nuclei were dissected out; tissue Pel-Freeze Biologicals; host or cells: bovine caudate nuclei (washed membranes)
T2 sequence (F1MGM3 1-403): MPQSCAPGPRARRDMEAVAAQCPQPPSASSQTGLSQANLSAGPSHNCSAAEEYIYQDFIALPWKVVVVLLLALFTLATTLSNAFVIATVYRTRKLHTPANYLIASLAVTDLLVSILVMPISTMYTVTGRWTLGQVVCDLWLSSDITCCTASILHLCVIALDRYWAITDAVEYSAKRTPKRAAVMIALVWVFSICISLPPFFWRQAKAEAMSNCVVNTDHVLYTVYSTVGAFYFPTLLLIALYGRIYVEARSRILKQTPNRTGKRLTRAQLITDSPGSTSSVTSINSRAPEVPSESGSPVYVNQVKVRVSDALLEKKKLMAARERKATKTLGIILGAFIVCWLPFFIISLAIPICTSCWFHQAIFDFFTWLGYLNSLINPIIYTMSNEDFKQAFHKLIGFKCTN
The experiment in a line: 5-HT1D binding ([3H]5-HT displacement, bovine caudate nuclei membranes). How it is done:
The affinities of the compounds at the central 5-HT1D binding sites were determined using a modification of the binding assay described by Heuring and Peroutka (J. Neurosci. 7:894-903, 1987). Bovine brains were obtained from Pel-Freeze Biologicals, and the caudate nuclei were dissected out and frozen at -70° C. until the time that the membranes were prepared for the binding assays. At that time the tissues were homogenized in 40 volumes of ice-cold Tris-HCl buffer (50 mM, pH 7.4 at 22° C.) with a Techmar Tissumizer (setting 65 for 15 sec), and the homogenate was centrifuged at 39,800 g for 10 min. The resulting pellet was then resuspended in the same buffer, and the centrifugation and resuspension process was repeated three additional times to wash the membranes. Between the second and third washes the resuspended membranes were incubated for 10 min at 37° C. to facilitate the removal of endogenous 5-HT. The final pellet was resuspended in Tris buffer to a concentration of 25 mg of original tissue wet weight/ml for use in the binding assay. […] The assay tubes were incubated for 10 min at 37° C., and the contents were then rapidly filtered through GF/B filters (pretreated with 0.5% polyethylenimine), followed by four one-mL washes with ice-cold buffer. The radioactivity trapped by the filters was quantitated by liquid scintillation spectrometry, and specific [^3 H]5-HT binding to the 5-HT1D sites was defined as the difference between [^3 H]5-HT bound in the presence and absence of 10 μM 5-HT.
The affinities of compounds at the 5-HT1D receptor are expressed as IC50 values, i.e., the concentration required to inhibit 50% of the binding. These values were determined from 12-point competition curves using nonlinear regression (SYSTAT, SYSTAT, Inc., Evanston, Ill.).

Another test relates to Brain 5-hydroxyindoles. In words: brain 5-hydroxyindoles in vivo after subcutaneous injection. The arrangement: species or system male albino rats. Conditions: 1 hour, * = P<0.05 vs control. On the procedure:
(§1) Certain compounds were evaluated to determine their ability to affect the 5-hydroxyindoles serotonin, 5-hydroxyindole acetic acid (5HIAA) and serum corticosterone, in vivo, using the following procedures.
(§2) Compounds in aqueous solution were injected subcutaneously into male albino rats. Rats were decapitated one hour later. Trunk blood was collected and allowed to clot; after centrifugation, serum was stored frozen prior to analysis. Whole brain was removed and frozen on dry ice, then stored frozen prior to analysis. Serum corticosterone concentration was measured spectrofluorometrically (J. H. Solem and T. Brinch-Johnsen, "An evaluation of a method for determination of free corticosteroids in minute quantities of mouse plasma," Scand. J. Clin. Lab. Invest. (Suppl. 80), 1.14 (1965).) 5-Hydroxyindoleacetic acid (5HIAA) concentration in whole brain was measured by liquid chromatography with electrochemical detection. (Ray W. Fuller and Kenneth W. Perry, "Effects of buspirone and its metabolite, 1-(2-pyrimidinyl)piperazine, on brain monoamines and their metabolites in rats", J. Pharmacol. Exp. Ther. 248, 50-56 (1989).) The results are provided in Table III.

Another test relates to serum corticosterone. In words: serum corticosterone in vivo after subcutaneous injection. Further details: species or system male albino rats. Conditions: 1 hour, * = P<0.05 vs control. How it is done:
as §1, §2

[2] abbreviates: [3H]8-OH-DPAT 1.0 nM, rat hippocampi, pH 7.4, 37° C., 10 min, read-out: 5HT1A IC50 (concentration required to inhibit 50% of the binding).
Setting [3] is: [3H]5-HT 1.7-1.9 nM, bovine caudate, 8-OH-DPTA and mesulergine 100 nM as masks, pH 7.4, 37° C., 10 min, read-out: 5HT1D IC50 (concentration required to inhibit 50% of the binding).

For the compound `CCCN(CCC)[C@H]1Cc2c(C(C)=O)ccc3c2[C@@H](CN3)C1` (relative stereo) [Example 3, 6-acetyl-4-(di-n-propylamino)-1,2,2a,3,4,5-hexahydrobenz[cd]indole], the IC50 is 0.63 nM on central 5-HT1A receptors and 7.47 nM in test [1].

`CCCN(CCC)C1Cc2c(C(=O)C(C)C)ccc3c2C(CN3)C1` (single isomer, unassigned; (-)) [Example 9, (-)-6-(2-methylpropanoyl)-4-(di-n-propylamino)-1,2,2a,3,4,5-hexahydrobenz[cd]indole]: the IC50 on central 5-HT1A receptors (setting [2]) stood at 54.9 nM; in test [1] (setting [3]) it was 3130 nM. In addition, the “Brain 5-HIAA” value with Brain 5-hydroxyindoles (0.003 mg/Kg s.c.) is recorded as 1.68 ± 0.10 n moles/g; in the test with Brain 5-hydroxyindoles (0.03 mg/Kg s.c.), 1.91 ± 0.06 n moles/g; in the test on Brain 5-hydroxyindoles (0.3 mg/Kg s.c.) it was 1.74 ± 0.04 n moles/g. Besides, the Brain serotonin with Brain 5-hydroxyindoles (0.003 mg/Kg s.c.) amounted to 1.83 ± 0.08 n moles/g; in the test on Brain 5-hydroxyindoles (0.03 mg/Kg s.c.), 1.90 ± 0.10 n moles/g; in the test on Brain 5-hydroxyindoles (0.3 mg/Kg s.c.), 1.69 ± 0.06 n moles/g. The figures for the “Serum Corticosterone” value in the test on serum corticosterone (0.003 mg/Kg s.c.), with serum corticosterone (0.03 mg/Kg s.c.) and in the test on serum corticosterone (0.3 mg/Kg s.c.) were 4.1 ± 0.5 μg/100 ml, 6.0 ± 1.6 μg/100 ml and 6.7 ± 2.0 μg/100 ml, respectively.

For the compound `CCCN(CCC)[C@H]1Cc2c(C(C)=O)ccc3c2[C@H](CN3)C1` [Example 4, (2aR,4R)-6-acetyl-4-(di-n-propylamino)-1,2,2a,3,4,5-hexahydrobenz[cd]indole], the IC50 amounted to 0.8 nM on central 5-HT1A receptors (setting [2]) and 236 nM in test [1] (setting [3]).

For `CCCN(CCC)[C@@H]1Cc2c(C(C)=O)ccc3c2[C@@H](CN3)C1` [Example 5, (2aS,4S)-6-acetyl-4-(di-n-propylamino)-1,2,2a,3,4,5-hexahydrobenz[cd]indole], the IC50 at central 5-HT1A receptors (setting [2]) turned out to be 0.31 nM; in test [1] (setting [3]), 129 nM.

Consider `CCCN(CCC)[C@H]1Cc2c(C(C)=O)ccc3c2[C@@H](CN3)C1` [Example 6, (+)-(2aS,4R)-6-acetyl-4-(di-n-propylamino)-1,2,2a,3,4,5-hexahydrobenz[cd]indole], for which the IC50 at central 5-HT1A receptors (setting [2]) amounted to 0.3 nM; in test [1] (setting [3]) it was 6.25 nM. In addition, the “Brain 5-HIAA” value in the test with Brain 5-hydroxyindoles (0.003 mg/Kg s.c.) was 1.81 ± 0.14 n moles/g; in the test with Brain 5-hydroxyindoles (0.03 mg/Kg s.c.), 1.58 ± 0.08 n moles/g; with Brain 5-hydroxyindoles (0.3 mg/Kg s.c.) it was 1.41 ± 0.03 n moles/g. Further, the Brain serotonin in the test with Brain 5-hydroxyindoles (0.003 mg/Kg s.c.) is on record as 2.46 ± 0.14 n moles/g; in the test with Brain 5-hydroxyindoles (0.03 mg/Kg s.c.), 2.99 ± 0.06 n moles/g; in the test with Brain 5-hydroxyindoles (0.3 mg/Kg s.c.), 3.08 ± 0.04 n moles/g. Further, the “Serum Corticosterone” value is reported as 5.8 ± 1.0 μg/100 ml with serum corticosterone (0.003 mg/Kg s.c.), 10.6 ± 2.0 μg/100 ml with serum corticosterone (0.03 mg/Kg s.c.) and 42.2 ± 1.1 μg/100 ml in the test on serum corticosterone (0.3 mg/Kg s.c.).

On to `CCCN(CCC)[C@@H]1Cc2c(C(C)=O)ccc3c2[C@H](CN3)C1` [Example 7, (-) (2aR,4S)-6-acetyl-4-(di-n-propylamino)-1,2,2a,3,4,5-hexahydrobenz[cd]indole], for which the IC50 at central 5-HT1A receptors (setting [2]) was determined as 6.61 nM; in test [1] (setting [3]) it was 8500 nM. The “Brain 5-HIAA” value is given as 2.06 ± 0.13 n moles/g in the test on Brain 5-hydroxyindoles (0.003 mg/Kg s.c.), 1.87 ± 0.07 n moles/g in the test on Brain 5-hydroxyindoles (0.03 mg/Kg s.c.) and 1.77 ± 0.17 n moles/g in the test with Brain 5-hydroxyindoles (0.3 mg/Kg s.c.). The Brain serotonin in the test on Brain 5-hydroxyindoles (0.003 mg/Kg s.c.) was 2.75 ± 0.05 n moles/g; in the test on Brain 5-hydroxyindoles (0.03 mg/Kg s.c.), 2.57 ± 0.10 n moles/g; in the test on Brain 5-hydroxyindoles (0.3 mg/Kg s.c.), 2.85 ± 0.08 n moles/g. Moreover, the “Serum Corticosterone” value with serum corticosterone (0.003 mg/Kg s.c.) is given as 3.8 ± 0.5 μg/100 ml; in the test with serum corticosterone (0.03 mg/Kg s.c.), 6.5 ± 2.6 μg/100 ml; in the test with serum corticosterone (0.3 mg/Kg s.c.), 8.4 ± 4.0 μg/100 ml.

Turning to `CCCN(CCC)[C@H]1Cc2c(C(=O)C(C)C)ccc3c2[C@@H](CN3)C1` [Example 8, (+)-(2aS,4R)-6-(2-methylpropanoyl)-4-(di-n-propylamino)-1,2,2a,3,4,5-hexahydrobenz[cd]indole], the IC50 stood at 0.25 nM on central 5-HT1A receptors (setting [2]) and 1.24 nM in test [1] (setting [3]). Also, the “Brain 5-HIAA” value with Brain 5-hydroxyindoles (0.003 mg/Kg s.c.) is 1.56 ± 0.10 n moles/g; in the test on Brain 5-hydroxyindoles (0.03 mg/Kg s.c.), 1.34 ± 0.06 n moles/g; in the test on Brain 5-hydroxyindoles (0.3 mg/Kg s.c.), 1.30 ± 0.07 n moles/g. The results for the Brain serotonin in the test with Brain 5-hydroxyindoles (0.003 mg/Kg s.c.), in the test with Brain 5-hydroxyindoles (0.03 mg/Kg s.c.) and in the test with Brain 5-hydroxyindoles (0.3 mg/Kg s.c.) were 1.88 ± 0.05 n moles/g, 2.26 ± 0.06 n moles/g and 2.26 ± 0.16 n moles/g, respectively. The “Serum Corticosterone” value in the test on serum corticosterone (0.003 mg/Kg s.c.) is listed as 3.6 ± 0.7 μg/100 ml; with serum corticosterone (0.03 mg/Kg s.c.), 27.1 ± 6.4 μg/100 ml; with serum corticosterone (0.3 mg/Kg s.c.), 42.0 ± 0.4 μg/100 ml.

With `CCCN(CCC)[C@@H]1Cc2c(C(=O)CC)ccc3c2[C@H](CN3)C1` [Example 10, (-)-(2aR,4S)-6-(propanoyl)-4-(di-n-propylamino)-1,2,2a,3,4,5-hexahydrobenz[cd]indole], the figures for the IC50 (on central 5-HT1A receptors (setting [2]); in test [1] (setting [3])) were 9.47 nM and 9000 nM, respectively.

Turning to `CCCN(CCC)[C@H]1Cc2c(C(=O)c3ccccc3)ccc3c2[C@@H](CN3)C1` [Example 12, (+)-(2aS,4R)-6-(benzoyl)-4-(di-n-propylamine)-1,2,2a,3,4,5-hexahydrobenz[cd]indole], the IC50 on central 5-HT1A receptors (setting [2]) is 0.34 nM; in test [1] (setting [3]) it was 1.78 nM.

In the case of `CCCN(CCC)[C@H]1Cc2c(C(=O)Cc3ccccc3)ccc3c2[C@@H](CN3)C1` [Example 13, (+)-(2aS,4R)-6-(2-phenylethanoyl)-4-(di-n-propylamino)-1,2,2a,3,4,5-hexahydrobenz[cd]indole], the results for the IC50 (on central 5-HT1A receptors (setting [2]); in test [1] (setting [3])) were 0.98 nM and 2.7 nM, respectively.
